Measurements from article PMC12212259, “Evaluation of AlphaFold modeling for elucidation of nanobody–peptide epitope interactions” (The Journal of Biological Chemistry, 2025).
Peptide text beside a SMILES is read from it.

Tests used:
[1] = system: Nb6E (A2AR-Nb6E-ALFA) on HEK293 cells; assay: Flow cytometry competition binding against FAM-6E-C14 on HEK293 cells; parameters: species or system human; conditions: peptides 10-0.01 μM vs 10 nM FAM-6E-C14, 30 m, median AF647 fluorescence
Protocol: Human embryonic kidney 293 cells stably expressing a cell surface protein fused with Nb6E (A2AR-Nb6E-ALFA, described previously ([25])) were cultured in Dulbecco's modified Eagle's media containing 10% fetal bovine serum (Thermo; #A5256801) and 1X penicillin–streptomycin (Thermo; #15140-122). Binding assays were performed as described previously ([25]). Briefly, cells were suspended in 2% bovine serum albumin (BSA) in 1X PBS (w/v) (BSA-PBS) with variable concentrations of unlabeled variant 6E peptides (10–0.01 μM) and 10 nM fluorescein-labeled 6E peptide (FAM-6E-C14) for 30 m followed by 2x washing with BSA-PBS, and subsequent staining with antifluorescein Ab conjugated with AlexaFluor647 (1.5:1000 dilution in BSA-PBS; Jackson ImmunoResearch; #200-602-037). Cells were incubated again for 30 m, pelleted, washed, and analyzed by flow cytometry on a CytoFlex flow cytometer (Beckman Coulter). Cell labeling intensity was monitored in the FL4-APC channel. Live cells were identified and gated based on forward scatter–side scatter profile. […] Median fluorescence intensity for cell counts observed in the APC channel for each sample was calculated from histograms. Median fluorescence intensity values obtained from technical replicates of the same sample were averaged and plotted against the corresponding concentration of the variant 6E peptide.

Nb6E [2] = assay: SPR analysis of 6E variant peptides binding to immobilized Nb6E-biotin
Protocol: (§1) SPR biosensor analysis was conducted on a Biacore T200 instrument (Cytiva) using a Series S Sensor Chip SA (streptavidin; Cytiva, #29104992) to determine Nb–tag binding affinity. All binding analyses were done in degassed SPR running buffer (1X PBS at pH 7.4 plus 0.05% P20). Biotinylated Nbs (Nb6E or Nb127), produced by sortagging reaction, was captured on SA chip where streptavidin is covalently coupled to dextran matrix. Biotinylated Nb (1 μM) was immobilized on flow cell via biotin–streptavidin interaction to reach a target response value of approximately 2000 response units. A separate flow cell was capped with only SPR running buffer to use as a surface control for nonspecific binding.
(§2) Analyte samples (127-tag peptide or mutant-6E peptides) were prepared as serial dilutions in SPR running buffer. Analyte was flowed over the chip at 50 μl/min with a contact time of 60 s and a dissociation time of 120 s. A duplicate injection of one concentration and a buffer injection (blank) were used for assessing chip surface performance and double referencing, respectively. […] Kinetic constants and KD values (M) were calculated from local fittings using 1:1 kinetics binding model for peptide (analyte) binding to Nb–biotin on the BIAevaluation software (Cytiva).

Nb6E [3] = conditions: cited from earlier work
Nb127 = assay: SPR analysis of 127-tag binding to immobilized Nb127-biotin; conditions: Biacore T200, Nb127-biotin on streptavidin chip, 127 tag 400-6.25 nM, PBS pH 7.4 + 0.05% P20, 1:1 kinetics binding model
Protocol: as §1, §2

rank of binding affinities (SPR) (Nb6E [2]) [E-M9 > 6E-WT > 6E-F9] | Kd (Nb127) [nM] | Structure (SMILES) | rank of binding affinities (competition binding assay) [1] [E-M9 > 6E-WT > 6E-F9] | experimental binding to Nb6E (earlier work) (Nb6E [3])
6 |  | CC[C@H](C)[C@H](NC(=O)[C@H](CCC(N)=O)NC(=O)[C@H](CCCNC(=N)N)NC(=O)[C@H](C)NC(=O)[C@H](CCSC)NC(=O)[C@H](CCC(=O)O)NC(=O)[C@H](CCCCN)NC(=O)[C@H](C)NC(=O)[C@H](CCC(=O)O)NC(=O)[C@H](CCC(N)=O)NC(=O)[C@H](CC(=O)O)NC(=O)[C@H](C)NC(=O)[C@H](CCC(N)=O)NC(=O)CNC(=O)CNC(=O)CN)C(=O)N[C@@H](CO)C(N)=O [6E-M9] (H-GGGQADQEAKEMARQIS-NH2) | 6 | 
6 |  | CC[C@H](C)[C@H](NC(=O)[C@H](CCC(N)=O)NC(=O)[C@H](CCCNC(=N)N)NC(=O)[C@H](C)NC(=O)[C@H](CC(C)C)NC(=O)[C@H](CCC(=O)O)NC(=O)[C@H](CCCCN)NC(=O)[C@H](C)NC(=O)[C@H](CCC(=O)O)NC(=O)[C@H](CCC(N)=O)NC(=O)[C@H](CC(=O)O)NC(=O)[C@H](C)NC(=O)[C@@H](N)CCC(N)=O)C(=O)N[C@@H](CO)C(N)=O [6E-L9 (WT)] (H-QADQEAKELARQIS-NH2) | 6 | substantially higher affinity than the 6E-A9 variant
 | 14 | NCCCC[C@H](NC(=O)[C@H](Cc1c[nH]c2ccccc12)NC(=O)[C@H](Cc1ccccc1)NC(=O)[C@H](CC(=O)O)NC(=O)[C@H](CCC(=O)O)NC(=O)[C@H](Cc1ccccc1)NC(=O)[C@@H](N)CO)C(=O)NCC(=O)N[C@@H](CCC(=O)O)C(=O)N[C@@H](CC(=O)O)C(N)=O [127-tag] (H-SFEDFWKGED-NH2) |  | 
